Source: ChEMBL document CHEMBL1145004, “3-(4-[[Benzyl(methyl)amino]methyl]phenyl)-6,7-dimethoxy-2H-2-chromenone (AP2238) inhibits both acetylcholinesterase and acetylcholinesterase-induced beta-amyloid aggregation: a dual function lead for Alzheimer's disease therapy” (J Med Chem, 2003)

Legend:
[1] = target: Acetylcholinesterase (Homo sapiens, UniProt P22303); assay: Inhibitory potency was evaluated against recombinant human AChE
[2] = target: Cholinesterase (Homo sapiens, UniProt P06276); assay: Inhibitory potency was evaluated against isolated Butyrylcholinesterase
Sequence of Cholinesterase (P06276 whole entry): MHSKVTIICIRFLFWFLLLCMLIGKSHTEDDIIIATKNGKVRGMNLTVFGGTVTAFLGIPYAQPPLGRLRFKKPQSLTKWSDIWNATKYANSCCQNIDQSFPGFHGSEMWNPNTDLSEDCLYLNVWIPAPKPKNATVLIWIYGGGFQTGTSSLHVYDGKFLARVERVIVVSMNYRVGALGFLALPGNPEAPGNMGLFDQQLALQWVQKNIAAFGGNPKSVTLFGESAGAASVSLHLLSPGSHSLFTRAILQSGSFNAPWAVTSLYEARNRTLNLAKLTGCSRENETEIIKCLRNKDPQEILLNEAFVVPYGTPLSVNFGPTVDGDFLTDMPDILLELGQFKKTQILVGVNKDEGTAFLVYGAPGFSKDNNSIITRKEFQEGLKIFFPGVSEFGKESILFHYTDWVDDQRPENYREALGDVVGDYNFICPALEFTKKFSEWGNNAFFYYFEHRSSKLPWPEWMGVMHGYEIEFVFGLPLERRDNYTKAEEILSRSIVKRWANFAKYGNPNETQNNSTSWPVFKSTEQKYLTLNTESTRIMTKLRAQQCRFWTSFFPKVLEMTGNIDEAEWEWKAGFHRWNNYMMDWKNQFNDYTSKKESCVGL

Sequence of Acetylcholinesterase (P22303 whole entry): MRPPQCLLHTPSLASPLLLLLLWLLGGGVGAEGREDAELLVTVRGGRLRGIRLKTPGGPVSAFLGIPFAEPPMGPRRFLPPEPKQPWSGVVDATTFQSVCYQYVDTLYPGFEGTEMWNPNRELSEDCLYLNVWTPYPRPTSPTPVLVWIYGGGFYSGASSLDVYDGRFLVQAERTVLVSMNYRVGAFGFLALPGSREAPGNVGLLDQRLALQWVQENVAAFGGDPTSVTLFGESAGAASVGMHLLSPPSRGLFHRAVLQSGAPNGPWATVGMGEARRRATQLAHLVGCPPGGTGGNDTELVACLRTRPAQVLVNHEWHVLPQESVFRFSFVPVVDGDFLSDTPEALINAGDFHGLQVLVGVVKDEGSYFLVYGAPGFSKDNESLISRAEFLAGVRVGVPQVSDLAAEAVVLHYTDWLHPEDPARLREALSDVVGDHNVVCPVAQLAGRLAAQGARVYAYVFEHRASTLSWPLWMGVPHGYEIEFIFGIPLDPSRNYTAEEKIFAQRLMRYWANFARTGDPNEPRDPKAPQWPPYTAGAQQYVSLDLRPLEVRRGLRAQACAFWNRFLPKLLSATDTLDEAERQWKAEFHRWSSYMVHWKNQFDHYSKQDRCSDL

Compound: COc1cc2cc(-c3ccc(CN(C)Cc4ccccc4)cc3)c(=O)oc2cc1OC
- IC50 [1]: 44.5 nM
- Ki [1]: 21.7 nM
- IC50 [2]: 48900 nM
